From patent US7091207B2, “Method of treating myocardial infarction with PDE-5 inhibitors” (Virginia Commonwealth University, priority 2002, dated 2006)
Marks after values point to notes of the source that are not given here.

Key:
[1] = Systemic hemodynamics (blood pressure, heart rate, rate pressure product) in rabbits; format: in vivo, rabbit
[2] = test system: mouse heart, global I-R injury; assay: Isolated perfused mouse heart (Langendorff), 20 min global ischemia and 30 min reperfusion after in vivo treatment
Procedure: Adult male outbred ICR mice were supplied by Harlan Inc (Indianapolis, Ind.). Viagra pills (Pfizer Inc) were ground into powder and dissolved in saline. The drug solution was filtered (0.45-μm pore size) before intraperitoneal injection. 1400W, an iNOS inhibitor, was obtained from Alexis. We used an isolated perfused mouse heart model subjected to 20 minutes of global ischemia and 30 minutes of reperfusion (Langendorff mode). Myocardial I-R injury was assessed by measuring infarct size, contractile function, and coronary flow as described previously (Xi, 1999). Twenty-eight mice were randomized into the following 4 groups: (n=6 to 9 per group): (1) saline (0.15 mL IP), (2) sildenafil (0.7 mg/kg IP, equivalent to 50 mg Viagra pill used for patients with erectile dysfunction, given 24 hours before I-R), (3) sildenafil+1400W (10 mg/kg IP, 14 given 30 minutes before I-R), and (4) saline+1400W. Measurement of NOS Isoforms Mice were treated with sildenafil (0.7 mg/kg IP), and their hearts were removed at 15, 30, and 45 minutes and 1, 2, 3, 4, and 24 hours after injection (n=3 per group). Three nontreated hearts were used as controls. Tissue samples were ground under liquid nitrogen and homogenized with TRI Reagent (Molecular Research Center) for extracting total RNA, which was reverse-transcribed into cDNA at 50° C. for 30 minutes using a OneStep reverse transcription (RT)-polymerase chain reaction (PCR) kit from Qiagen. The oligonucleotide primers were synthesized on the basis of published sequences for murine iNOS, eNOS, and GAPDH15 (Integrated DNA Technology). The RT-PCR products were electrophoresed on 1.5% Trisacetate-EDTA agarose gel. The target bands were identified on the basis of their specific size using DNA standards. iNOS and eNOS proteins were measured by Western blots as described previously. 13 In brief, triplicate heart samples were collected 24 hours after saline or sildenafil injection and homogenized in ice-cold RIPA buffer (Upstate Biotechnology). The homogenate was centrifuged at 10,000 g for 10 minutes at 4° C., and supernatant was recovered as the total cellular protein. Total protein (60 μg) from each sample was separated by SDS-PAGE on 10% acrylamide gels, transferred to a polyvinylidine difluoride membrane, and then blocked with 5% nonfat dry milk in Tris-buffered saline. The membrane was subsequently incubated with a rabbit polyclonal antibody (dilution 1:500, Santa Cruz) reacting specifically to iNOS, eNOS, or actin. The secondary antibody was a horseradish peroxidase-conjugated anti-rabbit IgG (1:1000 dilution, Amersham). The membranes were developed using enhanced chemiluminescence and exposed to x-ray film. The mRNA and protein expression were quantified by scanning each of the RT-PCR or Western blot band using a densitometer (Bioquant 98). […]

[3] = oral 1.4 mg/kg, after 30 minutes
[4] = oral sildenafil citrate 1.4 mg/kg, Acute, 30-min Ischemia
[5] = oral sildenafil citrate 1.4 mg/kg, Acute, 60-min Reperfusion
[6] = oral sildenafil citrate 1.4 mg/kg, Acute, 80-min Reperfusion
[7] = oral sildenafil citrate 1.4 mg/kg, Acute, 120-min Reperfusion
[8] = oral sildenafil citrate 1.4 mg/kg, Acute, Baseline
[9] = oral sildenafil citrate 1.4 mg/kg, Acute, Preischemia
[10] = oral sildenafil citrate 1.4 mg/kg, Delayed, 30-min Ischemia
[11] = oral sildenafil citrate 1.4 mg/kg, Delayed, 60-min Reperfusion
[12] = oral sildenafil citrate 1.4 mg/kg, Delayed, 80-min Reperfusion
[13] = oral sildenafil citrate 1.4 mg/kg, Delayed, 120-min Reperfusion
[14] = oral sildenafil citrate 1.4 mg/kg, Delayed, Baseline
[15] = oral sildenafil citrate 1.4 mg/kg, Delayed, Preischemia
[16] = sildenafil 0.7 mg/kg IV, acute phase, 30-min Ischemia
[17] = sildenafil 0.7 mg/kg IV, acute phase, Baseline
[18] = sildenafil 0.7 mg/kg IV, acute phase, Preischemia
[19] = sildenafil 0.7 mg/kg IV, acute phase, Reperfusion (60 min)
[20] = sildenafil 0.7 mg/kg IV, acute phase, Reperfusion (120 min)
[21] = sildenafil 0.7 mg/kg IV, acute phase, Reperfusion (180 min)
[22] = sildenafil 0.7 mg/kg IV, delayed phase, 30-min Ischemia
[23] = sildenafil 0.7 mg/kg IV, delayed phase, Baseline
[24] = sildenafil 0.7 mg/kg IV, delayed phase, Preischemia
[25] = sildenafil 0.7 mg/kg IV, delayed phase, Reperfusion (60 min)
[26] = sildenafil 0.7 mg/kg IV, delayed phase, Reperfusion (120 min)
[27] = sildenafil 0.7 mg/kg IV, delayed phase, Reperfusion (180 min)
[28] = sildenafil citrate 0.7 mg/kg intravenous, within 2 minutes
[29] = 0.7 mg/kg IP 24 hours before I-R

CCCc1nn(C)c2c(=O)[nH]c(-c3cc(S(=O)(=O)N4CCN(C)CC4)ccc3OCC)nc12 [sildenafil]
changes in heart rate ([1]; 0.7 mg/kg intravenous): No significant changes in heart rate
time until systemic hemodynamics returned to nearly baseline levels ([1]; 0.7 mg/kg intravenous): ≤ 5 min
changes in heart rate ([1]; oral 1.4 mg/kg): No changes in heart rate
decrease in diastolic pressure [1, 3]: ~12.5%
decrease in mean arterial pressure [1, 3]: ~10.3%
decrease in systolic pressure [1, 3]: approximately 9.2%
hypotensive response ([1]; oral 1.4 mg/kg, at 60 minutes): remained significant
HR [1, 4]: 216 ± 18 beats/min
MAP [1, 4]: 96 ± 6 mmHg
RPP (systolic arterial pressure x HR) [1, 4]: 23137 ± 1617
HR [1, 5]: 205 ± 14 beats/min
MAP [1, 5]: 89 ± 0.4 mmHg
RPP (systolic arterial pressure x HR) [1, 5]: 21647 ± 2274
HR [1, 6]: 187 ± 9 beats/min
MAP [1, 6]: 81 ± 5c mmHg
RPP (systolic arterial pressure x HR) [1, 6]: 18555 ± 1336
HR [1, 7]: 187 ± 9 beats/min
MAP [1, 7]: 82 ± 5c mmHg
RPP (systolic arterial pressure x HR) [1, 7]: 17738 ± 860c
HR [1, 8]: 216 ± 5 beats/min
MAP [1, 8]: 100 ± 2a mmHg
RPP (systolic arterial pressure x HR) [1, 8]: 24859 ± 239
HR [1, 9]: 210 ± 20 beats/min
MAP [1, 9]: 95 ± 3 mmHg
RPP (systolic arterial pressure x HR) [1, 9]: 22848 ± 2027
HR [1, 10]: 190 ± 18 beats/min
MAP [1, 10]: 104 ± 5 mmHg
RPP (systolic arterial pressure x HR) [1, 10]: 22089 ± 2288
HR [1, 11]: 185 ± 14 beats/min
MAP [1, 11]: 103 ± 8 mmHg
RPP (systolic arterial pressure x HR) [1, 11]: 20955 ± 1469
HR [1, 12]: 173 ± 16 beats/min
MAP [1, 12]: 94 ± 8 mmHg
RPP (systolic arterial pressure x HR) [1, 12]: 18838 ± 1913
HR [1, 13]: 171 ± 15 beats/min
MAP [1, 13]: 94 ± 8 mmHg
RPP (systolic arterial pressure x HR) [1, 13]: 17692 ± 978
HR [1, 14]: 187 ± 15 beats/min
MAP [1, 14]: 109 ± 3 mmHg
RPP (systolic arterial pressure x HR) [1, 14]: 22626 ± 2173
HR [1, 15]: 193 ± 7 beats/min
MAP [1, 15]: 99 ± 3 mmHg
RPP (systolic arterial pressure x HR) [1, 15]: 21938 ± 989
HR [1, 16]: 208 ± 11 beats/min
MAP [1, 16]: 76 ± 7 mmHg
RPP (systolic arterial pressure × HR) [1, 16]: 17,728 ± 1441
HR [1, 17]: 247 ± 20 beats/min
MAP [1, 17]: 77 ± 4^f mmHg
RPP (systolic arterial pressure × HR) [1, 17]: 21,988 ± 2129
HR [1, 18]: 204 ± 8 beats/min
MAP [1, 18]: 81 ± 6^f mmHg
RPP (systolic arterial pressure × HR) [1, 18]: 18,132 ± 999
HR [1, 19]: 201 ± 14 beats/min
MAP [1, 19]: 76 ± 5^f mmHg
RPP (systolic arterial pressure × HR) [1, 19]: 16748 ± 1425
HR [1, 20]: 177 ± 11^a beats/min
MAP [1, 20]: 74 ± 5^f mmHg
RPP (systolic arterial pressure × HR) [1, 20]: 14909 ± 1289^a
HR [1, 21]: 158 ± 12^a beats/min
MAP [1, 21]: 73 ± 5^f mmHg
RPP (systolic arterial pressure × HR) [1, 21]: 12,967 ± 1115^a
HR [1, 22]: 189 ± 8^a beats/min
MAP [1, 22]: 73 ± 9 mmHg
RPP (systolic arterial pressure × HR) [1, 22]: 15,395 ± 1784
HR [1, 23]: 229 ± 14 beats/min
MAP [1, 23]: 76 ± 5^f mmHg
RPP (systolic arterial pressure × HR) [1, 23]: 19,692 ± 1528
HR [1, 24]: 215 ± 8 beats/min
MAP [1, 24]: 71 ± 5^f mmHg
RPP (systolic arterial pressure × HR) [1, 24]: 17,764 ± 1174
HR [1, 25]: 179 ± 8^a,b beats/min
MAP [1, 25]: 74 ± 9^f mmHg
RPP (systolic arterial pressure × HR) [1, 25]: 15,086 ± 1989
HR [1, 26]: 170 ± 8^a,b beats/min
MAP [1, 26]: 73 ± 5^f mmHg
RPP (systolic arterial pressure × HR) [1, 26]: 13,477 ± 1285^a
HR [1, 27]: 164 ± 11^a,b beats/min
MAP [1, 27]: 68 ± 3^f mmHg
RPP (systolic arterial pressure × HR) [1, 27]: 12,196 ± 1088^a
decline in diastolic pressure [1, 28]: 47.3%
decline in mean arterial pressure [1, 28]: 38.8%
decline in systolic pressure [1, 28]: 24.5%
preischemic or postischemic coronary flow [2, 29]: did not alter
ventricular contractile function (stunning) [2, 29]: not associated with compromised ventricular contractile function
infarct size ([2]; sildenafil 0.7 mg/kg IP 24 hours before I-R): 6.9±1.2%
